Reference: patent US20240416143A1, “PHOTONIC ANTIMICROBIAL WOUND SURFACE DRESSING” (The General Hospital Corporation, priority 2021, published 2024)

Legend:
E. coli = assay: Photoinactivation of planktonic cultures by menadione + antimicrobial blue light; type: cell-based, Escherichia coli ATCC 25922; settings: menadione ⅛ MIC + aBL 90 J/cm^2 (50 mW/cm^2), 405 nm
Description: The bacterial cells were grown in BHI broth medium shaken overnight. Cells were collected by centrifugation at 4,000 rpm for 5 minutes and suspended in PBS at a density of 10^8 colony-forming units (CFU)/mL (estimated by measuring the optical density at 600 nm; O.D 0.1=10^8 cells/mL). The microbial suspension in PBS was transferred to a 35×12-mm dish and mixed with different concentrations of menadione: 0, 0.5, 1 and 2 μg/mL for MRSA USA300, AF003 and IQ0064; 0, 1, 10 and 30 μg/mL for P. aeruginosa PA01; and 0, 16, 32, 64 and 128 μg/mL for E. coli ATCC 25922. After incubation in the dark at 25° C. for 1 hour, the planktonic suspension of cells at room temperature was irradiated using aBL (405 nm) at 50 mW/cm^2 with different radiant exposures (0-250 J/cm^2). During the aBL irradiation, 40 μL of samples were withdrawn every 15 minutes, and the CFUs were determined by 10-fold serial dilutions in PBS (10-1 to 10-7 dilution factors), plated on BHI agar plates as described previously [Ref. 17]. CFUs were counted after overnight incubation at 37° C. Experiments were performed in triplicate.

MRSA biofilm = assay: Photoinactivation of 48-hour in vitro biofilms by adjuvant/antibiotic + antimicrobial blue light; type: cell-based, methicillin-resistant Staphylococcus aureus; settings: for Bacterial Log10 CFU/mL Reduction after menadione + aBL: MRSA USA 300 biofilm 48 h
Description: The bacterial suspension was grown in a shaking incubator overnight in BHI broth. Cells were collected by centrifugation at 4,000 rpm for 5 minutes and suspended in PBS at a density of 10^6 CFU/mL. Then, the biofilms were grown for 48 hours (unless otherwise specified) in 96-well microtiter plates as described previously [Ref. 27], with a renewal of the media every 24 hours. Following the 48-hour biofilm growth, fresh 200 μL of PBS with or without menadione in different concentrations were added to the wells and the biofilms were incubated in the dark at 25° C. for 1 hour: 0, 0.5, 1, and 2 μg/mL for MRSA USA300, AF0001, IQ0064; 0, 1, 10, 30 and 50 μg/mL for P. aeruginosa PA01; and 0, 100, and 150 μg/mL for E. coli ATCC 25922. After that, the control and the menadione-treated biofilms were maintained without irradiation (“menadione/dark”). Simultaneously, the aBL was delivered to the other biofilm groups testing different power densities (50, 30, 15, and 10 mW/cm^2) while keeping the same radiant exposure of 250 J/cm^2. After the light exposure, the biofilms were carefully washed two times with PBS and 200 μL of PBS was added to each well. Then, the bacterial biofilms in each well were harvested by scratching with a sterile pipette tip and three wells of each group were pooled together in a 1.5 mL microcentrifuge tube. The total volume obtained, 600 μL (3 wells), was sonicated using a Branson 2510 Water Bath Sonicator (Marshall Scientific, LLC) for 5 minutes and the CFU was determined by 10-fold serial dilutions in PBS on BHI agar plates. CFU was counted after overnight incubation at 37° C. Experiments were performed in triplicate.
A bacterial suspension was grown in a shaking incubator overnight in BHI broth. Cells were collected by centrifugation at 4,000 rpm for 5 minutes and suspended in PBS at a density of 10^6 CFU/mL. Then, the biofilms were grown for 48 hours in 96-well microtiter plates with a renewal of the media every 24 hours. Following the 48-hour biofilm growth, fresh 200 μL of PBS with the tetracyclines minocycline, doxycycline, and demeclocycline in different concentrations were added to the wells and the biofilms were incubated in the dark at 25° C. for 1 hour: 0, 0.25, 0.5, and 1 μg/mL for minocycline; 0, 0.5, 1, and 2 μg/mL for doxycycline; and 0, 0.5, 1, and 2 for demeclocycline. After that, the control and the tetracycline-treated biofilms were maintained without irradiation (“menadione/dark”). Simultaneously, the aBL (405 nm) was delivered to the other biofilm groups testing different power densities (50, 30 mW/cm^2) while keeping the radiant exposures of 50-250 J/cm^2. After the light exposure, the biofilms were carefully washed two times with PBS and 200 μL of PBS was added to each well. Then, the bacterial biofilms in each well were harvested by scratching with a sterile pipette tip and three wells of each group were pooled together in a 1.5 mL microcentrifuge tube. The total volume obtained, 600 μL (3 wells), was sonicated using a Branson 2510 Water Bath Sonicator (Marshall Scientific, LLC) for 5 minutes and the CFU/mL was determined by 10-fold serial dilutions in PBS on BHI agar plates. CFU was counted after overnight incubation at 37° C.

MRSA = assay: Singlet oxygen assay (SOSG) in bacteria; type: cell-based, methicillin-resistant Staphylococcus aureus; settings: 10 μg/mL menadione, 200 J/cm^2
Description: 1.2.9.2 Singlet oxygen ^1O2 assay: The singlet oxygen was measured by Singlet Oxygen Sensor Green Reagent (SOSG) (Thermofisher). In the presence of singlet oxygen, SOSG emits a green fluorescence similar to that of fluorescein (excitation/emission maxima ˜504/525 nm). The MRSA were grown in BHI broth medium with shaking overnight. Cells were collected by centrifugation at 4,000 rpm for 5 minutes and resuspended in PBS in the stationary growth phase culture of 1×10^8 CFU/mL. The microbial suspension was transferred to a 35×12-mm dish, mixed with 10 μg/mL of menadione, and stained with 10 μM SOSG solution per the manufacturer's instruction. The bacteria were irradiated with the blue light at 50 mW/cm^2 and the samples were collected each 15 minutes to be analyzed by Microplate Spectrofluorometer (SPECTRAmax®, Molecular Devices, USA) at λex=504 nm and λem=525 nm. The control and the menadione/dark groups were generated under the same conditions without irradiation.

[1] = in vivo; cited from earlier work

CC1=CC(=O)c2ccccc2C1=O [menadione, 2-methyl-1,4-naphthoquinone]
eradication by aBL combined with menadione (E. coli): 6 log10 | biofilm reduction by menadione without irradiation (MRSA biofilm; 48 h biofilm, dark): < 1 log killing | biofilm killed by menadione plus aBL (MRSA biofilm; 48 h biofilm, 1 μg/mL menadione + aBL 250 J/cm^2 (50 mW/cm^2)): 4.85 log10 CFU/mL | biofilm killed by menadione plus aBL (MRSA biofilm; 48 h biofilm, 1 μg/mL menadione + aBL 250 J/cm^2 at 15 mW/cm^2): 3.01 log10 CFU/mL | Bacterial Log10 CFU/mL Reduction after menadione + aBL (MRSA biofilm; 10 mW/cm^2, 250 J/cm^2, 6 hours 56 minutes): −1.91 Log10 CFU/mL | Bacterial Log10 CFU/mL Reduction after menadione + aBL (MRSA biofilm; 15 mW/cm^2, 250 J/cm^2, 4 hours 37 minutes): −3.01 Log10 CFU/mL | Bacterial Log10 CFU/mL Reduction after menadione + aBL (MRSA biofilm; 30 mW/cm^2, 250 J/cm^2, 2 hours 18 minutes): −2.28 Log10 CFU/mL | Bacterial Log10 CFU/mL Reduction after menadione + aBL (MRSA biofilm; 50 mW/cm^2, 250 J/cm^2, 1 hours 23 minutes): −4.85 Log10 CFU/mL | Bacterial Log10 CFU/mL Reduction after menadione + aBL (MRSA biofilm; power density 0 mW/cm^2): 0 Log10 CFU/mL | singlet oxygen (SOSG), menadione+aBL vs aBL alone (MRSA): 1.5 times | adverse effect at high doses [1]: hepatitis
